Source: patent US20250283110A1, “METHODS AND COMPOSITIONS FOR TRANSDUCTION OF NK CELLS” (ST. JUDE CHILDREN'S RESEARCH HOSPITAL, INC., priority 2021, published 2025)
pEC50: −log10 of the molar value. “Also recorded” adds a separate entry of the source.

How the values were obtained:
NK cells [1] = assay: cells; assay type: cell-based; conditions: Homo sapiens, 72 h; N=3; read-out: EC50 of YFP expression in NK cells
TBK1/IKKε = conditions: Ref. 20; cited from earlier work
NK cells [2] = assay: NK cell immunophenotyping by flow cytometry with and without inhibitor; assay type: cell-based, Human; conditions: 2 μM for 24 hours, then 48 hours fresh media; N=3; paired two-tailed t-test treated vs untreated
Method: FIGS. 4A-4B show representative data relating to NK cell phenotype with and without treatment with a representative disclosed compound, MRT67307. Briefly, NK cells were treated with and without 2μMMRT67307 for 24 hours. Media was removed and replaced with fresh complete media and cells incubated for another 48 hours. Cells were immunophenotyped via flow cytometry. NK cells were identified as efluor455UV negative, CD3 negative, and CD56 positive.
250,000 NK cells were collected and washed twice in DPBS. Surface HER2-CAR detection was determined via immunolabeling with anti-F (ab′) 2-AF647 (109-606-006, Jackson Labs, Bar Harbor, ME, USA; 1:100), CD19-CAR was detected with PE conjugated recombinant human CD19 protein (3309HP, Creative Biomart, Shirley, NY, USA; 1:100), or YFP were utilized for detection on a BD FACS Lyric machine and analyzed with FlowJo v10 (BD). Immunophenotyping was performed on a BD Symphony flow cytometer. Antibodies used are delineated in below in Table 1.

Compound | pEC50 (NK cells [1]) | specificity for TBK1/IKKε (TBK1/IKKε) | effect on NK cell phenotype (NK cells [2])
O=C(NCCCNc1nc(Nc2cccc(NC(=O)N3CCCC3)c2)ncc1I)c1cccs1 [BX-795] | 5.30 | – | –
O=C(NCCCNc1nc(Nc2cccc(CN3CCOCC3)c2)ncc1C1CC1)C1CCC1 [MRT67307, N-[3-[[5-cyclopropyl-2-[3-(morpholin-4-ylmethyl)anilino]pyrimidin-4-yl]amino]propyl]cyclobutanecarboxamide] | 5.96 | more specific for TBK1/IKKε than BX-795 | no effect; also recorded: No parameter was significantly different
